Laboratory results as given in ChEMBL document CHEMBL1201862, “PubChem BioAssay data set” (2004).
The source made the active and inactive calls.

Key:
[1] = target: Disintegrin and metalloproteinase domain-containing protein 17 (Homo sapiens, UniProt P78536); test: exosite inhibitors of ADAM17, dose response, biochemical (AID 743260)
[2] = ADAM10 protease inhibitors, dose response, selectivity assay for ADAM17 exosite inhibitor project, biochemical, FRET peptide substrate, recombinant human ADAM10 (AID 743259);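 note: ADAM10 enzyme cleaving a FRET peptide substrate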
[3] = Late stage assay provider results from the probe development effort to identify selective inhibitors of heat shock protein 90 (HSP90): Absorbance-based cell proliferation assay in SKBR3 cells.; type: functional; conditions: SK-BR-3
[4] = Late stage assay provider results from the probe development effort to identify selective inhibitors of heat shock protein 90 (HSP90): Absorbance-based cell proliferation assay in MCF7 cells.; type: functional
Beta-galactosidase = Beta-galactosidase (Escherichia coli, UniProt Q8VNN2); test: Dose response counterscreen for EBI2 assay utilizing the enzyme, b-galactosidase.; type: functional
[5] = target: T1, Oxysterols receptor LXR-beta (Homo sapiens, UniProt P55055); type: functional, cell-based;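 note: agonist activity at LXR measured by a cell-based luminescence readout across a dose range, run as a counterscreen for daf-12 agonists; HEK293 cells with Gal4-LXR fusion and GAL4-driven luciferase reporter; potency for activation of Gal4-LXR reporter so compounds are agonists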
T1 sequence (P55055 whole entry): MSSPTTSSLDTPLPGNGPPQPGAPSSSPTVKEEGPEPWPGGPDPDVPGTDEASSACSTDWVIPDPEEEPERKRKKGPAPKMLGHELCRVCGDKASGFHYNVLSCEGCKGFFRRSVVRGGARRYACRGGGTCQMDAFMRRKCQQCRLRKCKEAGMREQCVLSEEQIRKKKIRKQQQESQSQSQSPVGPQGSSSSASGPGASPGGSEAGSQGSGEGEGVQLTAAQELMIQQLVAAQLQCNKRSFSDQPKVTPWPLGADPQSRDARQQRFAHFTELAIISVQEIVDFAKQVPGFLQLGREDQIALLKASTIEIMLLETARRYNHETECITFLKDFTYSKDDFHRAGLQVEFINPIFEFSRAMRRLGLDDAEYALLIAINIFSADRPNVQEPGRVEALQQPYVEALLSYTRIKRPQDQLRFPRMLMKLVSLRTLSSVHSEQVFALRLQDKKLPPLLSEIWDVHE

Beta-lactamase [6] = target: Beta-lactamase (Pseudomonas aeruginosa, UniProt Q79MP6);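 note: biochemical dose-response test of metallo-beta-lactamase enzyme inhibition, read out by epi-absorbance; purified recombinant IMP-1 metallo-beta-lactamase with nitrocefin as substrate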
Beta-lactamase [7] = target: Beta-lactamase (Salmonella choleraesuis (strain SC-B67), UniProt Q5J463)
CAAX prenyl protease 2 = target: T2, CAAX prenyl protease 2 (Homo sapiens, UniProt Q9Y256); test: human Rce1 protease inhibitors, dose response, biochemical, yeast membranes, quenched-peptide fluorescence, cherry-pick (AID 588849)
T2 sequence (Q9Y256 whole entry): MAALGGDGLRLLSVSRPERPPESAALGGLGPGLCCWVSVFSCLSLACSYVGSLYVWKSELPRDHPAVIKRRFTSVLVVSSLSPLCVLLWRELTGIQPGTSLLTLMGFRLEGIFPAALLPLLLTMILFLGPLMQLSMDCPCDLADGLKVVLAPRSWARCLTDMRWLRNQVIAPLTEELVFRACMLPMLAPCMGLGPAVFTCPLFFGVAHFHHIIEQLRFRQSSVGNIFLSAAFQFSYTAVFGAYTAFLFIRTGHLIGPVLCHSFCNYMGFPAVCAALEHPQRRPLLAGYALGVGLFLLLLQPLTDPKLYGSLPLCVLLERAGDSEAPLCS

[8] = target: T3, Corticotropin-releasing factor receptor 2/Corticotropin-releasing factor-binding protein (Homo sapiens, UniProt P24387+Q13324); test: Dose Response confirmation of uHTS hits for small molecule antagonists of the CRF-binding protein and CRF-R2 receptor complex.; type: functional; conditions: read-out: IC50_Mean
T3 sequence (Q13324 whole entry): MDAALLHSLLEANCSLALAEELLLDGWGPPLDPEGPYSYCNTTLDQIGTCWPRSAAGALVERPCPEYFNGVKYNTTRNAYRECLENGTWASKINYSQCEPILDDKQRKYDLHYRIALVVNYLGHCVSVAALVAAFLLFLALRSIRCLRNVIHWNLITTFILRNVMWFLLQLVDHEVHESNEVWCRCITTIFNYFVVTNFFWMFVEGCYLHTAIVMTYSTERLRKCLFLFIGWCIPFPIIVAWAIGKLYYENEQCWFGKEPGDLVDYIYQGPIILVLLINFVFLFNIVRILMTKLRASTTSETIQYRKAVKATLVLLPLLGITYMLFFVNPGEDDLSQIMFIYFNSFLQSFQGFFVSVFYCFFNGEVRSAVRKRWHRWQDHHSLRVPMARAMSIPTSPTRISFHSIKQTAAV
T3 sequence (P24387 whole entry): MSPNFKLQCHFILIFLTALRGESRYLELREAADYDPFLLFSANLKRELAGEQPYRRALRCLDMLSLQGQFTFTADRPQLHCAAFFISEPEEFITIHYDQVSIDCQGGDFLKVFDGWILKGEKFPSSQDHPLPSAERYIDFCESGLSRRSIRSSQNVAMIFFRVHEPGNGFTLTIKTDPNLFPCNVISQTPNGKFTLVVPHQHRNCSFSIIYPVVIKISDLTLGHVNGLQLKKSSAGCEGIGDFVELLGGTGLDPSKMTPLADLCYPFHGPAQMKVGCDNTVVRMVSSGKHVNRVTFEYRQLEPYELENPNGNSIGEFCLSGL

[9] = target: T3, Corticotropin-releasing factor receptor 2/Corticotropin-releasing factor-binding protein; test: activators of CRF receptor 2 with binding protein – uHTS hits, confirmation (AID 602473); type: functional; conditions: read-out: EC50_Mean
[10] = CRF-BP/CRF-R2 complex antagonists, dose response, cell-based, uHTS hits, 384-well (AID 651639); type: functional, Homo sapiens; conditions: read-out: IC50_Mean
Cytochrome P450 2C9 = Cytochrome P450 2C9 (Homo sapiens, UniProt P11712)
[11] = Late stage counterscreen for inhibitors of Trypanosoma brucei methionyl tRNA synthetase (MetRS): Luminescence-based cell-based high throughput dose response assay to identify compounds that are cytotoxic to Jurkat human T lymphocyte cells.; type: functional
[12] = target: T4, Methionyl-tRNA synthetase, putative (Trypanosoma brucei brucei, UniProt Q38C91); type: functional, Trypanosoma brucei brucei strain 927/4 GUTat10.1
T4 sequence (Q38C91 whole entry): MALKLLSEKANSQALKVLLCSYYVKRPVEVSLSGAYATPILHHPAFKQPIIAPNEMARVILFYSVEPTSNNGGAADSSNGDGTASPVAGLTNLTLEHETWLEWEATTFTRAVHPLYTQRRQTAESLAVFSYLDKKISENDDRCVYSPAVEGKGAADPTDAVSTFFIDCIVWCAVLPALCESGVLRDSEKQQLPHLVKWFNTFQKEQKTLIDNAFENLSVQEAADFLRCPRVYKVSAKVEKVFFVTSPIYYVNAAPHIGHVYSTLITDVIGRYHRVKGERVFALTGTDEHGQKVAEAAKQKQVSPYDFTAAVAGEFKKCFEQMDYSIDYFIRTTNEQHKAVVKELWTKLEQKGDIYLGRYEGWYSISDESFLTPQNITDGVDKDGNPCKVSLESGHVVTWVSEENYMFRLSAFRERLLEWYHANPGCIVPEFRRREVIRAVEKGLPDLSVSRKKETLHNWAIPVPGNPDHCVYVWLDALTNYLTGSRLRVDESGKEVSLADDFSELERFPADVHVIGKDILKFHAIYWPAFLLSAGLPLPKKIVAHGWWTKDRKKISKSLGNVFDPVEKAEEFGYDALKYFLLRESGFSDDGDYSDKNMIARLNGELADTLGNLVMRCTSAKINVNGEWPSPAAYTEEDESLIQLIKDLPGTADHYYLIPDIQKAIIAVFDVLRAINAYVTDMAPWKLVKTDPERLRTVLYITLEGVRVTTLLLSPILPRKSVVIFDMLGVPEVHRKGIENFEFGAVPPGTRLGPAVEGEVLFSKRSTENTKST

[13] = Counterscreen for inhibitors of Trypanosoma brucei methionyl tRNA synthetase (MetRS): Luminescence-based cell-based high throughput dose response assay to identify compounds that are cytotoxic to Jurkat human T lymphocyte cells.; type: functional
[14] = target: T4, Methionyl-tRNA synthetase, putative; type: functional, Trypanosoma brucei brucei strain 927/4 GUTat10.1; remark: listed apart in the source
HEK293 = test: HEK293T cell cytotoxicity, dose response, cytotoxicity control, ATP luminescence, cherry-pick samples (AID 687005); type: functional, cell-based; conditions: Homo sapiens;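 note: cells exposed to compound for 48 hours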
[15] = HEK293 Cytotoxicity Assay Measured in Cell-Based System Using Plate Reader - 7071-01_Inhibitor_Dose_CherryPick_Activity_Set2.; type: functional
Bcl-2-related protein A1 = target: T5, Bcl-2-related protein A1 (Mus musculus, UniProt Q07440); type: functional;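 note: confirmatory dose–response counterscreen on Bfl-1, used to check hits from a UBC13 polyubiquitin inhibitor campaign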
T5 sequence (Q07440 whole entry): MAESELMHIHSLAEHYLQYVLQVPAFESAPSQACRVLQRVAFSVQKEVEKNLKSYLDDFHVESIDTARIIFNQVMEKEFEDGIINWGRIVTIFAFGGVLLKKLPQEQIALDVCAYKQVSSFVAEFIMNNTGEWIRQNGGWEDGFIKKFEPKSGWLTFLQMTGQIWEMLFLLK

[16] = target: T6, Ubiquitin-conjugating enzyme E2 N (Homo sapiens, UniProt P61088); type: functional
T6 sequence (P61088 whole entry): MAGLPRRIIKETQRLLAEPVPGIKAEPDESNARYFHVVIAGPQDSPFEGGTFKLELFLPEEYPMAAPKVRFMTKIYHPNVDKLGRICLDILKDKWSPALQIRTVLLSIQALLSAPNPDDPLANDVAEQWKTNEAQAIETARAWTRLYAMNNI

[17] = target: T6, Ubiquitin-conjugating enzyme E2 N; type: functional; remark: listed apart in the source
[18] = target: DNA repair protein RAD52 homolog (Homo sapiens, UniProt P43351); type: functional, biochemical
[19] = target: T7, Probable nicotinate-nucleotide adenylyltransferase (Staphylococcus aureus (strain N315), UniProt P65502); type: functional, Staphylococcus aureus subsp. aureus N315;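 for IC50 Mean: confirmatory dose-response retesting of NadD inhibitor hits first found in an ultra-high-throughput screen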
[20] = target: T7, Probable nicotinate-nucleotide adenylyltransferase; type: functional, Staphylococcus aureus subsp. aureus N315; conditions: read-out: IC50_Mean
fMet-Leu-Phe receptor = fMet-Leu-Phe receptor (Homo sapiens, UniProt P21462); test: FPR ligands, dose response (AID 519); type: functional
[21] = inhibitors of HIV Env-driven cell fusion, dose response, cherry-pick (AID 652057); type: functional, cell-based
[22] = CEM21 lymphoblast cell cytotoxicity, dose response, cytotoxicity control for viral fusion inhibitor project, CellTiter-Glo luminescence, cherry-picked (AID 652042); type: functional, cell-based;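 note: potency for signal decrease meaning cytotoxicity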
[23] = ZM109 Env clade C HIV-1 fusion inhibitors, dose response, HeLa effector, CEM target cells, luciferase, cherry-pick (AID 652058); type: functional, cell-based
[24] = inhibitors of clade B AD8 Env fusion, dose response, cell-based, cherry-pick (AID 652062); type: functional;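 note: luciferase signal from cell-cell fusion driven by HIV-1 clade B AD8 Env; potency is for inhibitors of fusion seen as a drop in luminescence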
HeLa = test: HeLa cell cytotoxicity, dose response, cytotoxicity control, ATP luminescence, cherry-pick samples (AID 687004); type: functional, cell-based; conditions: Homo sapiens

T7 sequence (P65502 whole entry): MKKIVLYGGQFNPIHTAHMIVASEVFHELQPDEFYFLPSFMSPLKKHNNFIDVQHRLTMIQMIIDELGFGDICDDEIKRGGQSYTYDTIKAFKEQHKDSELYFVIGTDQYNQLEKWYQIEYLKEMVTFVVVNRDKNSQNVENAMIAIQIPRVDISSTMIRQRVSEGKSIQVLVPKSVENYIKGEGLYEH
Disintegrin and metalloproteinase domain-containing protein 17, sequence (P78536 whole entry, the tested form may be a part): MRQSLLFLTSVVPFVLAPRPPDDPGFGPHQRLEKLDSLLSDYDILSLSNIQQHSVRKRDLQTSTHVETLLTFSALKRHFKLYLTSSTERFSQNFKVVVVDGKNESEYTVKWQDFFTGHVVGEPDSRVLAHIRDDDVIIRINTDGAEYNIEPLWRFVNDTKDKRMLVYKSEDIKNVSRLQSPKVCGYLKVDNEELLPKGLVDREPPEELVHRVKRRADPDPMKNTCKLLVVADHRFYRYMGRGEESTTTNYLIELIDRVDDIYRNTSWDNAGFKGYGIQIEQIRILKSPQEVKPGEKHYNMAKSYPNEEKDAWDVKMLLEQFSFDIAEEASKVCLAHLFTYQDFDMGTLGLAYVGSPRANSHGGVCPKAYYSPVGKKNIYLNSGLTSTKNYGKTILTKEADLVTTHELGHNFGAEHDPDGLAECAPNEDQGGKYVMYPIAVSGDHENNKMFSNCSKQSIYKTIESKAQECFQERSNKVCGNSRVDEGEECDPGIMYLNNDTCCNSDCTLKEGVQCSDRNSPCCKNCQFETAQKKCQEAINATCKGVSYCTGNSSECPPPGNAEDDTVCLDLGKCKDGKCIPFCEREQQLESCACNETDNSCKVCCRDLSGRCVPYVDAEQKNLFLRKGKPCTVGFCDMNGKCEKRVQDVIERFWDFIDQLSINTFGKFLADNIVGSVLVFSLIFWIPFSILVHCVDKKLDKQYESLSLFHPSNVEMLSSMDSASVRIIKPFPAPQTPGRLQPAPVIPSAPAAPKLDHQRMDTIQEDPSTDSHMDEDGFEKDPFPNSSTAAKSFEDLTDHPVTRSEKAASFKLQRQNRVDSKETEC
Beta-galactosidase, sequence (Q8VNN2 whole entry, the tested form may be a part): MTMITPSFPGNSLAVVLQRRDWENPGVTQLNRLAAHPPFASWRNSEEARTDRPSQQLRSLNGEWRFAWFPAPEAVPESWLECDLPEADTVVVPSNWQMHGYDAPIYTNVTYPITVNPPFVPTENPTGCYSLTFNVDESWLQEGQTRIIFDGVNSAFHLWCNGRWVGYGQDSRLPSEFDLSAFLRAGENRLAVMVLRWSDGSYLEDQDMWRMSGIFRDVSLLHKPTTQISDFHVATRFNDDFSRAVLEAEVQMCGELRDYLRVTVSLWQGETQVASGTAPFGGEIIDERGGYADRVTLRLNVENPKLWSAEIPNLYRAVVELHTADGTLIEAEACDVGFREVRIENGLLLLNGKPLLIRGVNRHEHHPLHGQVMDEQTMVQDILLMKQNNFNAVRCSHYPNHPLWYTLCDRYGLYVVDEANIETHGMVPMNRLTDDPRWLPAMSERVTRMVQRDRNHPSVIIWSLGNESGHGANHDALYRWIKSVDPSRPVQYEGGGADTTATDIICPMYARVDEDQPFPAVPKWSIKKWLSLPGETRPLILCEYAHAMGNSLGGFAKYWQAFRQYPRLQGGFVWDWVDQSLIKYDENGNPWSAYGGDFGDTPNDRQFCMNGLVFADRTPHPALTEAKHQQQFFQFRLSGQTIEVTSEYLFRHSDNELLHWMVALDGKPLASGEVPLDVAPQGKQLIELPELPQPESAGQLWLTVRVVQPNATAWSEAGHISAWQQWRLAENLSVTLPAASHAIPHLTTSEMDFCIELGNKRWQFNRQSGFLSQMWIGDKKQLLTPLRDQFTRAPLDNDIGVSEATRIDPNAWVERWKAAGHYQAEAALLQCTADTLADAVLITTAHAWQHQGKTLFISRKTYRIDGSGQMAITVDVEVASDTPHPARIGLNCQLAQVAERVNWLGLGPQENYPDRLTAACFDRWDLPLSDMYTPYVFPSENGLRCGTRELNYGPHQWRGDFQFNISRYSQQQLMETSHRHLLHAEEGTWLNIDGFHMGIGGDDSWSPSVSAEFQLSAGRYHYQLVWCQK
fMet-Leu-Phe receptor, sequence (P21462 whole entry, the tested form may be a part): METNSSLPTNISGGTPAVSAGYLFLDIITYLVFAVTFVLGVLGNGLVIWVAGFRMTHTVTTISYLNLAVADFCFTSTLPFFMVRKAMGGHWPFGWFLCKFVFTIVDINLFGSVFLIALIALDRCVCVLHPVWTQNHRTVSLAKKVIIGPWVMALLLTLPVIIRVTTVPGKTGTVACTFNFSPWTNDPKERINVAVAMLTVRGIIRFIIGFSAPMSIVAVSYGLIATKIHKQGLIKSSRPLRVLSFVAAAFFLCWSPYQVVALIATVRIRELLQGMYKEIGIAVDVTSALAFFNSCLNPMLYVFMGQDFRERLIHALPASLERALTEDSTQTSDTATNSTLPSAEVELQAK
Beta-lactamase (Salmonella choleraesuis (strain SC-B67), UniProt Q5J463), sequence (Q5J463 whole entry): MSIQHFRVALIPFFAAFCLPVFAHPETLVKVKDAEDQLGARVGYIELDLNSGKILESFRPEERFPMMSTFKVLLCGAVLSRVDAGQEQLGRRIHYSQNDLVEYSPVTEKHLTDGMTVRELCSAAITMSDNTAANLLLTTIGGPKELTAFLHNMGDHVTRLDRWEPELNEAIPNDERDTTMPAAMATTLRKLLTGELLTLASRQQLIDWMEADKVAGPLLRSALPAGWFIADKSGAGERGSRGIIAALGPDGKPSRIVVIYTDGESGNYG
DNA repair protein RAD52 homolog, sequence (P43351 whole entry): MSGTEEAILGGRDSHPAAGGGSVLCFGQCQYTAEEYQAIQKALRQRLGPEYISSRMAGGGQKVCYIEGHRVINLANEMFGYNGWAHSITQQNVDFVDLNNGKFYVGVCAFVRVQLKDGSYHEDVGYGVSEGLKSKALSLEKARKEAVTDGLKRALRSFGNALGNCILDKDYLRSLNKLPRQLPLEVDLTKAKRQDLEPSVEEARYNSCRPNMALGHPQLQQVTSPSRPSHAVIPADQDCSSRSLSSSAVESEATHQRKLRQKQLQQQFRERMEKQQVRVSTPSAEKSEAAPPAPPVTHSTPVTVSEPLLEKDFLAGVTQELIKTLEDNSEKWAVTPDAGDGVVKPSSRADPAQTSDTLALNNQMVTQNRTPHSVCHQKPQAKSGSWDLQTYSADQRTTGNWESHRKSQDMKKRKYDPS
Beta-lactamase (Pseudomonas aeruginosa, UniProt Q79MP6), sequence (Q79MP6 whole entry): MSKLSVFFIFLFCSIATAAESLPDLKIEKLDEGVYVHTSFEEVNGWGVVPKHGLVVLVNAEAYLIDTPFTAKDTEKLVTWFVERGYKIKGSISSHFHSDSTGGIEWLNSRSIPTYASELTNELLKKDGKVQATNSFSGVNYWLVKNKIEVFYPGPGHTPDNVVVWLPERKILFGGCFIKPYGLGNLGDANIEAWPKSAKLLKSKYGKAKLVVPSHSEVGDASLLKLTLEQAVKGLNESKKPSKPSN
Cytochrome P450 2C9, sequence (P11712 whole entry): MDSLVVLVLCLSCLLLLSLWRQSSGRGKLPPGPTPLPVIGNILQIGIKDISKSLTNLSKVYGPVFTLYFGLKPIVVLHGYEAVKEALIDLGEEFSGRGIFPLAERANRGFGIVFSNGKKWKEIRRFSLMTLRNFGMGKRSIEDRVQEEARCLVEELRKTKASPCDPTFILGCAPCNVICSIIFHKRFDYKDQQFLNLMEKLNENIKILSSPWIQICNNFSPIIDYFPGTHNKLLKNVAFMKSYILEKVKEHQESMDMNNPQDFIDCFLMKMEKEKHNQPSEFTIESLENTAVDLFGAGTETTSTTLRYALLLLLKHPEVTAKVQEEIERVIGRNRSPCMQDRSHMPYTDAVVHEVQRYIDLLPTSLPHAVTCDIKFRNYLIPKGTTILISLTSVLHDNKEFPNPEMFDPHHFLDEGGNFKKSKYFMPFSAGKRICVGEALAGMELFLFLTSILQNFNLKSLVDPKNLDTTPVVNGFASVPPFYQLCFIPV

## C[C@H](c1ccccc1)N1C[C@H](COCc2ccccc2)Oc2cc(N3CC[C@@H](O)C3)ccc2S1(=O)=O
[1]
  IC50: > 69.5 µM (inactive)
[2]
  IC50: 16 µM (inactive)

## O=C(Nc1ccc(F)cc1)c1coc(=O)c(Br)c1
[3]
  IC50: 8.8 µM (active)
[4]
  IC50: 3.4 µM (active)

## O=C(/C=C/c1ccccc1)N1CCN(c2ccccn2)CC1
Beta-galactosidase
  IC50: > 80 µM (inactive)

## CCS(=O)(=O)Nc1cc(-c2nc3cccnc3s2)ccc1C
[5]
  EC50: > 67.5 µM (inactive)

## COCCCn1/c(=N/C(=O)c2ccccc2)c(C#N)cc2c(=O)n3cccc(C)c3nc21
Beta-lactamase [6]
  IC50: > 59.6 µM (inactive)
Beta-lactamase [7]
  IC50: > 59.6 µM (inactive)

## O=C(SCC(O)C(O)CS)c1cccs1 (centres undefined)
[1]
  IC50: 3.76 µM (active)
[2]
  IC50: 40.5 µM (inactive)

## CSc1nnc(-c2sc(-c3ccccc3)nc2C)n1C
CAAX prenyl protease 2
  AC50: > 100 µM (inactive)
[8]
  IC50: < 0.368 µM (active)
[9]
  EC50: > 53 µM (inactive)
[10]
  IC50: > 20 µM (inactive)
Cytochrome P450 2C9
  AC50: 0.0708 µM (inconclusive)

## O=C(NCc1nc2ccccc2[nH]1)C1=C[C@H](c2ccc(Br)cc2)C[C@H](OCCCCO)O1
[11]
  IC50: 66.7 µM (inactive)

## CC1CCC(NC(=O)c2cccn2C)CC1 (centres undefined)
[5]
  EC50: > 67.6 µM (inactive)

## COc1ccccc1N1CCN(C(=O)c2cc3cc(C)ccc3[nH]2)CC1
Beta-galactosidase
  IC50: > 80 µM (inactive)

## CCOC(=O)N1CCC(Nc2c(Nc3ccc(F)cc3)c(=O)c2=O)CC1
[12]
  IC50: 7.98 µM (active)
[13]
  IC50: 83.3 µM (inactive)
[14]
  IC50: 4.36 µM (active)
[11]
  IC50: > 83.3 µM (inactive)

## C[C@@H]1CCCCO[C@@H](CN(C)S(=O)(=O)c2ccc(F)cc2)[C@@H](C)CN([C@@H](C)CO)C(=O)c2cc(NS(=O)(=O)c3ccc(F)cc3)ccc2O1
HEK293
  AC50: 17.1 µM (active)
[15]
  AC50: 17.1 µM (active)

## O=C1OC(=O)/C(=C\Nc2cnc3ccccc3c2)C=C1Br
[3]
  IC50: 17.4 µM (inactive)
[4]
  IC50: 12.1 µM (inactive)

## C#Cc1ccc([C@@H]2C=C(C(=O)NCc3nc4ccccc4[nH]3)O[C@H](OCC)[C@H]2CCCO)cc1
[12]
  IC50: 22.3 µM (inactive)
[13]
  IC50: 35.8 µM (inactive)
[14]
  IC50: 8.94 µM (active)

## Cc1ccc(C(=O)NCCN2C3=NC[C@@H](Cc4ccccc4)N3C[C@H]2Cc2ccc(O)cc2)cc1Br
Bcl-2-related protein A1
  IC50: > 20 µM (inactive)
[16]
  IC50: 19.4 µM (active)
[17]
  IC50: > 20 µM (inactive)
[18]
  AC50: 19.2 µM (active)

## CCn1cc(/C=N/NC(=O)c2cc3c(ccc4ccccc43)o2)c2ccccc21
[19]
  IC50: 40.7 µM (active)
[20]
  IC50: 80 µM (inactive)

## COCCCN1C(=O)C(O)=C(C(=O)c2ccco2)C1c1ccc(Br)cc1 (centres undefined)
fMet-Leu-Phe receptor
  Ki: 14.7 µM (active)

## OCc1nc2ccccc2n1CC(O)Cn1ccc2ccccc21 (centres undefined)
fMet-Leu-Phe receptor
  Ki: > 66.7 µM (inactive)

## C[C@H](CO)N1C[C@H](C)[C@H](CN(C)S(=O)(=O)c2ccccc2)Oc2ccc(NC(=O)Nc3cccc4ccccc34)cc2CC1=O
[21]
  AC50: < 0.26 µM (active)
[22]
  AC50: 31.7 µM (active)
[23]
  AC50: < 0.26 µM (active)
[24]
  AC50: 0.685 µM (active)

## Cc1ccc(N=C(S)Nc2ccc(Cl)c(Cl)c2)c(OC(F)F)c1
HeLa
  AC50: 29.9 µM (active)
HEK293
  AC50: 26.6 µM (active)
[15]
  AC50: 26.6 µM (active)
